Structures can show the parent of a compound that is named as a salt.
Tests used:
[1] = molecular target: T1, human Adenosine A2a receptor (Homo sapiens, UniProt P29274); experiment: Adenosine receptor TR-FRET binding assay (CA200645 displacement), A2a; details: 100 nM CA200645, CHO cell membranes, 2 hours at room temperature
T1 construct: expressed in transfected cells; host or cells: CHO cell membranes

[2] = molecular target: T2, human Adenosine A2b receptor (Homo sapiens, UniProt P29275); experiment: Adenosine receptor TR-FRET binding assay (CA200645 displacement), A2b; details: 30 nM CA200645, CHO cell membranes, 2 hours at room temperature
T2 construct: expressed in transfected cells; host or cells: CHO cell membranes
T2 sequence (P29275 1-332): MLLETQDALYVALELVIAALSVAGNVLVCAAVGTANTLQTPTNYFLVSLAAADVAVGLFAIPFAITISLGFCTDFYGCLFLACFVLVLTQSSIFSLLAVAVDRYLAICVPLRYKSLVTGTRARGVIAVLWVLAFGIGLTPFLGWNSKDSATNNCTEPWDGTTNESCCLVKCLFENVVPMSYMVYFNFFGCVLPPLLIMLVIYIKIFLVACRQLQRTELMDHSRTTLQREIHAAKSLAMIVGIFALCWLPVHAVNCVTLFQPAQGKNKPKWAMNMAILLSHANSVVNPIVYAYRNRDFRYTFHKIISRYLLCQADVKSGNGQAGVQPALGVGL

[3] = molecular target: T3, human Adenosine A1 receptor (Homo sapiens, UniProt P30542); experiment: Adenosine receptor TR-FRET binding assay (CA200645 displacement), A1
T3 sequence (P30542 1-326): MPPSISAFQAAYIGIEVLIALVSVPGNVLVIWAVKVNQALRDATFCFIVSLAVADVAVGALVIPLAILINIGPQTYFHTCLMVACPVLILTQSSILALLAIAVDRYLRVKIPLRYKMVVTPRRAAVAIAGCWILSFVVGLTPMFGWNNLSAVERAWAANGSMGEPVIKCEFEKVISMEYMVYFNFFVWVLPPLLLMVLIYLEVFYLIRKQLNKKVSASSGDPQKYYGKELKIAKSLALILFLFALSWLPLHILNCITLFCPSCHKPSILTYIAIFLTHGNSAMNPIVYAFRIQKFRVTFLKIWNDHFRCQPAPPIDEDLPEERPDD

[4] = molecular target: T4, human Adenosine A3 receptor (Homo sapiens, UniProt P0DMS8); experiment: Adenosine receptor TR-FRET binding assay (CA200645 displacement), A3
T4 sequence (P0DMS8 1-318): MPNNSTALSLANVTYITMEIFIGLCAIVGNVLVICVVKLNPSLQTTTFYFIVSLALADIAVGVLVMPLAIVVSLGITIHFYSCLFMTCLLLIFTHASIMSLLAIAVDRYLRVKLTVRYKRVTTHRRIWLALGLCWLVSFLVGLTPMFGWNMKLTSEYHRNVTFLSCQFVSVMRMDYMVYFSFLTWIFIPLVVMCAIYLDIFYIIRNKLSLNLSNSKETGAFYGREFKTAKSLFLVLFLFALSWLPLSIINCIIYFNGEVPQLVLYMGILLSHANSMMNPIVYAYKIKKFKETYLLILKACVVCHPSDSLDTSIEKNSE

T1 sequence (P29274 whole entry): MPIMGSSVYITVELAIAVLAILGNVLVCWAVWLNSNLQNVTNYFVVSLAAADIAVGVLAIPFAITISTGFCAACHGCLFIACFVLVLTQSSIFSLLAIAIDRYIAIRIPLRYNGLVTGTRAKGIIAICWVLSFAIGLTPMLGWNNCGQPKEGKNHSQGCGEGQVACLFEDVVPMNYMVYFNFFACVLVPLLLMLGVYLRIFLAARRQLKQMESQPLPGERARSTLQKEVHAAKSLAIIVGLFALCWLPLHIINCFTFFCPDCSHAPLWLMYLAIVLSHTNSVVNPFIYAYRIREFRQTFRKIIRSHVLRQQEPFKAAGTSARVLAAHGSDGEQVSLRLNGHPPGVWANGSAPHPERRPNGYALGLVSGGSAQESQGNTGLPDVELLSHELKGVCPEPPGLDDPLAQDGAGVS

Ki [1] [µM]	Ki [2] [µM]	Ki [3] [µM]	Ki [4] [µM]	Compound
0.0357	0.063	0.029	0.536	Cc1cc(-c2c(-c3ccc(F)cc3)nn3ccc(N)nc23)cc(Cl)n1 [Example 88, 3-(2-Chloro-6-methyl-4-pyridyl)-2-(4-fluorophenyl)pyrazolo[1,5-a]pyrimidin-5-amine]
0.105	1.2	0.089	0.749	Cn1cc(-c2c(-c3cccc(C#N)c3)nn3ccc(N)nc23)cn1 [Example 26.5, 3-[5-Amino-3-(1-methylpyrazol-4-yl)pyrazolo[1,5-a]pyrimidin-2-yl]benzonitrile]
0.359	2.46	1.12	> 1	Cc1cc(-c2c(-c3cccc(C#N)c3)nn3ccc(N)nc23)cc(C(=O)O)n1 [Example 28, 4-[5-Amino-2-(3-cyanophenyl)pyrazolo[1,5-a]pyrimidin-3-yl]-6-methyl-pyridine-2-carboxylic acid]
	1.51	2.38		Cn1nccc1-c1c(-c2cccc(C#N)c2)nn2ccc(C(=O)NCC(C)(C)O)nc12 [Example 12.5, 2-(3-Cyanophenyl)-N-(2-hydroxy-2-methyl-propyl)-3-(2-methylpyrazol-3-yl)pyrazolo[1,5-a]pyrimidine-5-carboxamide]
0.0137	0.001	0.303	1.18	Cc1cc(-c2c(-c3cccc(C#N)c3)nn3ccc(NS(C)(=O)=O)nc23)cc(Cl)n1 [Example 16, N-[3-(2-Chloro-6-methyl-4-pyridyl)-2-(3-cyanophenyl)pyrazolo[1,5-a]pyrimidin-5-yl]methanesulfonamide]
0.0117	0.053	0.664	> 1	Cc1cc(-c2c(-c3cccc(C#N)c3)nn3ccc(C(=O)NCC(C)(C)N)nc23)cc(Cl)n1 [Example 6.1, N-(2-Amino-2-methyl-propyl)-3-(2-chloro-6-methyl-4-pyridyl)-2-(3-cyanophenyl)pyrazolo[1,5-a]pyrimidine-5-carboxamide]
0.0059	0.054	0.346	> 1	Cc1cc(-c2c(-c3cccc(C#N)c3)nn3ccc(C(=O)NC4CN(C)C4)nc23)cc(Cl)n1 [Example 6.16, 3-(2-Chloro-6-methyl-4-pyridyl)-2-(3-cyanophenyl)-N-(1-methylazetidin-3-yl)pyrazolo[1,5-a]pyrimidine-5-carboxamide]
0.0003	0.004	0.016		Cc1cc(-c2c(-c3cccc(C#N)c3)nn3ccc(NCCO)nc23)cc(Cl)n1 [Example 19, 3-[3-(2-Chloro-6-methyl-4-pyridyl)-5-(2-hydroxyethylamino)pyrazolo[1,5-a]pyrimidin-2-yl]benzonitrile]
0.0072	0.012	0.044		Cc1cc(-c2c(-c3cccc(C#N)c3)nn3ccc(N)nc23)cc(C#N)n1 [Example 26.3, 4-[5-Amino-2-(3-cyanophenyl)pyrazolo[1,5-a]pyrimidin-3-yl]-6-methyl-pyridine-2-carbonitrile]
0.0274	0.792	0.725		CC(C)(O)CNC(=O)c1ccn2nc(-c3cccc(C#N)c3)c(-c3cncs3)c2n1 [Example 12.7, 2-(3-Cyanophenyl)-N-(2-hydroxy-2-methyl-propyl)-3-thiazol-5-yl-pyrazolo[1,5-a]pyrimidine-5-carboxamide]
0.147	0.239	0.095		N#Cc1cccc(-c2nn3ccc(N)nc3c2-c2cn[nH]c2)c1 [Example 1.1]
0.012	0.113		> 1	Cc1cc(-c2c(-c3cccc(C#N)c3)nn3ccc(NC(C)(C)C)nc23)cc(Cl)n1 [Example 3.2]
0.0111	0.001	0.307		Cc1cc(-c2c(-c3cccc(C#N)c3)nn3ccc(NS(N)(=O)=O)nc23)cc(Cl)n1 [Example 93, 3-(2-chloro-6-methyl-4-pyridyl)-2-(3-cyanophenyl)-5-(sulfamoylamino)pyrazolo[1,5-a]pyrimidine]
0.197	3.86		> 1	Nc1ccn2nc(-c3cccc(F)c3)c(Br)c2n1 [Example 71, 3-Bromo-2-(3-fluorophenyl)pyrazolo[1,5-a]pyrimidin-5-amine]

Second part, the compound before the results:

Compound	Ki [1] [µM]	Ki [2] [µM]	Ki [3] [µM]	Ki [4] [µM]
Cn1nccc1-c1c(-c2ccco2)nn2ccc(NCc3ccccc3)nc12 [Example 53.1, N-benzyl-2-(2-furyl)-3-(2-methylpyrazol-3-yl)pyrazolo[1,5-a]pyrimidin-5-amine]	0.0486	0.129	0.034	0.174
Cc1cc(-c2c(-c3cccc(C#N)c3)nn3ccc(C(=O)NCC4(O)COC4)nc23)cc(Cl)n1 [Example 6.7, 3-(2-Chloro-6-methyl-4-pyridyl)-2-(3-cyanophenyl)-N-[(3-hydroxyoxetan-3-yl)methyl]pyrazolo[1,5-a]pyrimidine-5-carboxamide]	0.0014	0.005	0.174	> 1
Cc1cc(-c2c(-c3cccc(C#N)c3)nn3ccc(NC(=O)NCC(C)(C)O)nc23)cc(Cl)n1 [Example 30.1, 1-[3-(2-Chloro-6-methyl-4-pyridyl)-2-(3-cyanophenyl)pyrazolo[1,5-a]pyrimidin-5-yl]-3-(2-hydroxy-2-methyl-propyl)urea]	0.0013	0.005	0.026	> 1
Cc1cc(-c2c(-c3cccc(C#N)c3)nn3ccc(C(=O)NCC4CCCNC4=O)nc23)cc(C)n1 (centres unmarked) [Example 92.15]	0.0003	0.019	0.15	0.599
N#Cc1c(-c2ccco2)nn2ccc(NC[C@@H]3CNCCO3)nc12 [Example 42, 2-(2-Furyl)-5-[[(2S)-morpholin-2-yl]methylamino]pyrazolo[1,5-a]pyrimidine-3-carbonitrile hydrochloride]	0.345	3.06	0.313	> 1
Cc1cc(-c2c(-c3cccc(C#N)c3)nn3ccc(NC(=O)N4CC5(COC5)C4)nc23)cc(C)n1 [Example 30.4, N-[2-(3-Cyanophenyl)-3-(2,6-dimethyl-4-pyridyl)pyrazolo[1,5-a]pyrimidin-5-yl]-2-oxa-6-azaspiro[3.3]heptane-6-carboxamide]	0.0078	0.073	0.103	> 1
Cc1cc(-c2c(-c3cccc(C#N)c3)nn3ccc(C(=O)NCC4(O)CCC4)nc23)cc(Cl)n1 [Example 6.3, 3-(2-Chloro-6-methyl-4-pyridyl)-2-(3-cyanophenyl)-N-[(1-hydroxycyclobutyl)methyl]pyrazolo[1,5-a]pyrimidine-5-carboxamide]	0.0003	0.003	0.127	> 1
Cc1cc(-c2c(-c3cccc(C#N)c3)nn3ccc(C(=O)NCCC(C)(C)O)nc23)cc(Cl)n1 [Example 5.3]	0.0003	0.02	0.224	> 1
Cc1cc(-c2c(-c3cccc(C#N)c3)nn3ccc(NC(=O)N4CCNCC4)nc23)cc(Cl)n1 [Example 31, N-[3-(2-Chloro-6-methyl-4-pyridyl)-2-(3-cyanophenyl)pyrazolo[1,5-a]pyrimidin-5-yl]piperazine-1-carboxamide]	0.0104	0.002	0.096	> 1
Fc1cccc(-c2cc3nc(NCc4nc5ccccc5[nH]4)ccn3n2)c1 [Example 66.3, N-(1H-Benzimidazol-2-ylmethyl)-2-(3-fluorophenyl)pyrazolo[1,5-a]pyrimidin-5-amine]	0.492	2.43	0.102	
Fc1cccc(-c2nn3ccc(NCc4ccccc4)nc3c2Cl)c1 [Example 67, N-Benzyl-3-chloro-2-(3-fluorophenyl)pyrazolo[1,5-a]pyrimidin-5-amine]	0.12	7.47		> 1
O=C(O)c1c(-c2ccco2)nn2ccc(NCc3ccccc3)nc12 [Example 76, 5-(Benzylamino)-2-(2-furyl)pyrazolo[1,5-a]pyrimidine-3-carboxylic acid]	0.116	2.43	2.54	

Reference: patent publication US20230203041A1, “ANTAGONISTS OF THE ADENOSINE A2A RECEPTOR” (AdoRx Therapeutics Limited, priority 2020, published 2023)
